# B1: trehalose phosphorylase: novel thermostable trehalose phosphorylase purified from Thermoanaerobium brockii, ATCC 35047; amino acid sequence of SEQ ID NO:4 (protein)
# chain: ANKTKKPIYPFEDWVIRETQFSIDTNYRNETIFTLANGYIGMRGTFEERYSGPKNTSFNGTYINGFYEIHDIVYPEGGYGFAKIGQTMLNVADSKIIKLYVDGEEFDLLQGKILFYERVLDMKKGFVERKVKWESPTGKILEVKIKRIVSLNRQHLAAISFTMQPVNFTGKIRFVSAIDGNVSNINDSEDVRVGSNLKGKVLKTIDKSVEGLKGWIVQKTQKSNFSYACAIDNVLVADSKYEVSNSLEEDGVKVIVDLEAEKGTSYTLNKFISYYTSKDFDENKLVALALEEIEKAKNDGFETIEKEQEEFLNSFWKDADVIIEGDKALQQGIRFNEFHLLQSVGRDGKTNIAAKGLTGGGYEGHYFWDSDIYIMPFFLYTKPEIAKALVMYRYNLLDAARSRAKELGHKGALYPWRTIDGPECSAYFPAGTAQYHINADIVYALKRYVEATNDVDFLYDYGCEILFETARFWEDLGAYIPLKGNKFCINCVTGPDEYTALVDNNAYTNYMAKMNLEYAYDIANKMKKEVPQKYQKVASKLNLKDEEIVAWKKAADNMYLPYSKELDIIPQDDSFLYKERITVDEIPEDQFPLLLHWHYLNIYRYQICKQPDVLLLMFLQREKFTKDELKKNYDYYEPITTHDSSLSPAIFSILANEIGYTDKAYKYFMMTARMDLDDYNDNVKDGIHAASMAGTWSAVVNGFGGMRVYTNELHFEPRLPKEWNLLSFNVRYKGRKINVKLTKENVVFALLEGEPIEIYYFDKKILLEKGEIK
# System: not listed separately
# Experiment: Thermal and pH stability of trehalose phosphorylase (residual enzyme activity)
# Format: physicochemical
# Settings: 10 mM phosphate buffer pH 7.0, one hour
# Method: The present trehalose phosphorylase activity is assayed as follows: Add 0.2 ml of an enzyme solution to 2 ml of 20 mM phosphate buffer (pH 7.0) containing 1.0 w/v % trehalose as a substrate, incubate the solution at 60° C. for 30 min, sample the reaction mixture in an amount of 0.5 ml, and incubate the sample at 100° C. for 10 min to suspend the enzymatic reaction. Add 0.5 ml of D-glucose oxidase/peroxidase reagent to the heated sample, stir the mixture, keep the mixture at 40° C. for 30 min, add 2.5 ml of 5-N hydrochloric acid, stir the resulting mixture, and measure the absorbance of the mixture at a wavelength of 525 nm. One unit of the enzyme activity is defined as the enzyme that forms one […] of D-glucose per one minute. […]
# (§1) Influences of temperatures and pHs on the present trehalose phosphorylase activity were studied in accordance with the assay for enzyme activity. […] In both cases, the enzymatic reactions were suspended similarly as in the enzyme assay, followed by quantifying the formed glucose. […] The thermal stability of the enzyme was determined by incubating the enzyme dissolved in 10 mM phosphate buffer (pH 7.0) at a temperature of about 40-85° C. for one hour, cooling the incubated enzyme, and assaying for the residual enzyme activity according to the enzyme assay. […]
row,Molecule,Thermal stability
1,B1,up to 60 °C

# Same assay, conditions: 4° C. for 24 hours
row,Molecule,pH stability
1,B1,6.0-9.0

# Target: T1, trehalose phosphorylase (Thermoanaerobacter brockii, UniProt Q8L164)
# T1 construct: recombinant E. coli enzyme (pTTP4) equivalent
# T1 sequence (Q8L164 2-774): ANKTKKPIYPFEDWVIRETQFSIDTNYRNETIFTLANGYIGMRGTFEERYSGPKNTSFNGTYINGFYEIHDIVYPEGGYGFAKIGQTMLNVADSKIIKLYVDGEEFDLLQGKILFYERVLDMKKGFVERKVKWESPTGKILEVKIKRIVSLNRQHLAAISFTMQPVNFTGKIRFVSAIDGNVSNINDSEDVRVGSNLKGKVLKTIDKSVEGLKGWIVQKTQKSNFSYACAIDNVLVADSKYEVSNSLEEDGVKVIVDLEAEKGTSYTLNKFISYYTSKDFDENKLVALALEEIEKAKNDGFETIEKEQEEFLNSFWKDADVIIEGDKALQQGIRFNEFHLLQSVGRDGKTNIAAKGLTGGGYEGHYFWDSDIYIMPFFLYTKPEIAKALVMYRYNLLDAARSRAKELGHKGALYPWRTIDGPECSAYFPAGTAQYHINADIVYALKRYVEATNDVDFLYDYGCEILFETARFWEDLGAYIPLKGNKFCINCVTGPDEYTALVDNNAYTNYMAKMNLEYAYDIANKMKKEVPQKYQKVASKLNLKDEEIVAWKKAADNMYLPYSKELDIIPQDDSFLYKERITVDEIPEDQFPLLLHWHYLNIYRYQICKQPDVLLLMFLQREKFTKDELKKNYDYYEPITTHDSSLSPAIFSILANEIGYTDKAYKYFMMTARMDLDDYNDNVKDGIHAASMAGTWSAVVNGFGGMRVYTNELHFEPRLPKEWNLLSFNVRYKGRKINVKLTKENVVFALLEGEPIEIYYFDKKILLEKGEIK
# Experiment: Specificity to acceptor in glucosyl-transferring saccharide-forming reaction by trehalose phosphorylase (TLC)
# Format: biochemical, Thermoanaerobium brockii
# Settings: used as donor in place of β-D-glucose-1-phosphoric acid
# Method: An aqueous solution, which dissolved in an equal amount, by dry weight, […], […] obtained by the method in Experiment 2, and enzymatically reacted at 60° C. and pH 7.0 for 24 hours. Similarly as in Experiment 5, the pre-reaction solutions and the post-reaction mixtures were subjected to TLC, followed by coloring the plates. Comparing spots of the samples of the solutions and mixtures detected on the plates, it was judged whether transferred saccharides were formed based on newly detected spots of the post reaction mixtures. By macroscopically observing the coloration degree of the newly detected spots, the yield of the transferred saccharides was relatively evaluated.
row,Molecule,Formation of glucosyl-transferred saccharide when used as saccharide donor
1,O=P(O)(O)O[C@H]1O[C@H](CO)[C@@H](O)[C@H](O)[C@H]1O [α-D-glucose-1-phosphoric acid],No glucosyl-transferred saccharide was obtained

# Target: T1, trehalose phosphorylase
# Experiment: Substrate specificity for saccharide-hydrolyzing reaction by trehalose phosphorylase (TLC)
# Format: biochemical, Thermoanaerobium brockii
# Parameters: key: +: Hydrolyzed by the action of the present trehalose phosphorylase.; -: Not hydrolyzed by the action of the present trehalose phosphorylase
# Settings: saccharide 2 w/v %, 10 units/g saccharide purified enzyme, 5 mM disodium hydrogenphosphate, 60° C., pH 7.0, 24 hours
# Method: An aqueous solution of a saccharide selected from D-glucose, maltose, sucrose, lactose, trehalose, neotrehalose, cellobiose, melibiose, kojibiose, isomaltose, sophorose, gentibiose, nigerose, laminaribiose, maltopentaose, and 4-O-α-D-glucosyltrehalose was mixed with 10 units/g saccharide, d.s.b., of a purified trehalose phosphorylase obtained by the method in Experiment 2, and incubated in the presence of 5 mM disodium hydrogenphosphate at 60° C. and pH 7.0 for 24 hours. The saccharide concentration of each reaction solution was 2 w/v %. Pre-reaction solutions and post-reaction mixtures were subjected to thin layer chromatography (hereinafter abbreviated as "TLC") using "KIESELGEL 60 (20×20 cm)", an aluminum plate for TLC commercialized by Merck & Co., Inc., Rahway, USA. Samples were developed once at ambient temperature on the plate using 1-butanol/pyridine/water (=7:3:1 by volume) as a developing solvent system, and the plate was sprayed with 20 v/v % sulfuric acid/methanol solution, and heated at 110° C. for about 10 min for coloration. Comparing spots of the solutions and mixtures detected on the plates, it was checked whether the enzyme acted on the saccharides.
row,Molecule,Decomposition
1,OC[C@H]1O[C@H](O[C@H]2O[C@H](CO)[C@@H](O[C@H]3O[C@H](CO)[C@@H](O)[C@H](O)[C@H]3O)[C@H](O)[C@H]2O)[C@H](O)[C@@H](O)[C@@H]1O [4-O-α-D-glucosyltrehalose],-
2,OC[C@H]1O[C@@H](O[C@H]2[C@H](O)[C@@H](O)C(O)O[C@@H]2CO)[C@H](O)[C@@H](O)[C@@H]1O (some centres unmarked) [Cellobiose],-
3,OC[C@H]1OC(O)[C@H](O)[C@@H](O)[C@@H]1O (stereo partly drawn) [D-Glucose],-
4,OC[C@H]1O[C@@H](OC[C@H]2OC(O)[C@H](O)[C@@H](O)[C@@H]2O)[C@H](O)[C@@H](O)[C@@H]1O (some centres unmarked) [Gentibiose],-
5,OC[C@H]1O[C@H](OC[C@H]2OC(O)[C@H](O)[C@@H](O)[C@@H]2O)[C@H](O)[C@@H](O)[C@@H]1O (some centres unmarked) [Isomaltose],-
6,OC[C@H]1O[C@H](O[C@H]2C(O)O[C@H](CO)[C@@H](O)[C@@H]2O)[C@H](O)[C@@H](O)[C@@H]1O (some centres unmarked) [Kojibiose],-
7,OC[C@H]1O[C@@H](O[C@H]2[C@H](O)[C@@H](O)C(O)O[C@@H]2CO)[C@H](O)[C@@H](O)[C@H]1O (some centres unmarked) [Lactose],-
8,OC[C@H]1O[C@@H](O[C@H]2[C@H](O)[C@@H](CO)OC(O)[C@@H]2O)[C@H](O)[C@@H](O)[C@@H]1O (some centres unmarked) [Laminaribiose],-
9,OC[C@H]1O[C@H](O[C@H]2[C@H](O)[C@@H](O)[C@@H](O[C@H]3[C@H](O)[C@@H](O)[C@@H](O[C@H]4[C@H](O)[C@@H](O)[C@@H](O[C@H]5[C@H](O)[C@@H](O)C(O)O[C@@H]5CO)O[C@@H]4CO)O[C@@H]3CO)O[C@@H]2CO)[C@H](O)[C@@H](O)[C@@H]1O (some centres unmarked) [Maltopentaose],-
10,OC[C@H]1O[C@H](O[C@H]2[C@H](O)[C@@H](O)[C@H](O)O[C@@H]2CO)[C@H](O)[C@@H](O)[C@@H]1O [Maltose],-

# System: not listed separately
# Experiment: Trehalose phosphorylase activity assay (specific activity, influence of temperature and pH)
# Format: biochemical
# Settings: incubated at 60° C. for 30 min
# Method: The present trehalose phosphorylase activity is assayed as follows: Add 0.2 ml of an enzyme solution to 2 ml of 20 mM phosphate buffer (pH 7.0) containing 1.0 w/v % trehalose as a substrate, incubate the solution at 60° C. for 30 min, sample the reaction mixture in an amount of 0.5 ml, and incubate the sample at 100° C. for 10 min to suspend the enzymatic reaction. Add 0.5 ml of D-glucose oxidase/peroxidase reagent to the heated sample, stir the mixture, keep the mixture at 40° C. for 30 min, add 2.5 ml of 5-N hydrochloric acid, stir the resulting mixture, and measure the absorbance of the mixture at a wavelength of 525 nm. One unit of the enzyme activity is defined as the enzyme that forms one […] of D-glucose per one minute. The activity of maltose- and kojibiose-phosphorylases can be assayed similarly as the same assay as indicated above except that the trehalose as a substrate is respectively replaced with maltose and kojibiose.
# The yield of the purified enzyme specimen, obtained by the above purification steps, was about 25% with respect to the enzyme activity of the supernatant of the disrupted cell suspension. […] Protein was quantified according to the Lowry method using calf serum albumin as a standard protein.
# as §1, with “assay. The pH stability of the enzyme was determined by dissolving the enzyme in buffers with different pHs of about 4-10, keeping each enzyme solution at 4° C. for 24 hours, adjusting each solution to give a pH of 7.0, and assaying for the residual enzyme activity according to the enzyme assay.” for “assay.”
row,Molecule,Optimum pH
1,B1,7.0-7.5

# Same assay, conditions: incubated at pH 7.0 for 30 min
row,Molecule,Optimum temperature
1,B1,about 70 °C

# Same assay, conditions: purified enzyme specimen; trehalose substrate, 60° C., pH 7.0
row,Molecule,Specific activity [units/mg protein]
1,B1,78.2

# System: not listed separately
# Experiment: Isoelectric point by polyacrylamide gel electrophoresis using ampholyte
# Format: physicochemical
# Settings: electrophoresis using 2 w/v % ampholyte
row,Molecule,Isoelectric point (pI)
1,B1,5.4±0.5
